The results in this text go back to US6486199B1, “Spiro and dispiro 1,2,4-trioxolane antimalarials” (Medicines for Malaria Venture MMV International Centre …, priority 2001, dated 2002).

Converted amounts (≈) assume the structure as drawn. Where two headings read alike, the source gives them in different places. A value given as a limit tells only on which side of the number the result lay.

Series [1] in a line: differential scanning calorimetry (DSC), thermal stability. It is filed as physicochemical. The settings on record: thermal decomposition. In general terms: Differential scanning calorimetry records heat flow against a reference as temperature is scanned.
For series [2], the system named is chloroquine-resistant K1 strain of P. falciparum. As to the kind of experiment: in vitro screen against chloroquine-resistant K1 strain of P. falciparum. It is filed as cell-based. Conditions: for IC50: Plasmodium falciparum.
In series [3] the test system is ANKA strain of P. Berghei. As to the kind of experiment: single dose STI in vivo screen in infected Moro SPF mice. The settings on record: for antimalarial activity, overall assessment: overall judgement of in vitro and in vivo data of Table 2; for Activity (%) po / Activity (%) sc / inhibition in vivo at 10 mg/kg: percent reduction in parasitemia day 3 post-infection; for inhibition in vivo at 10 mg/kg: Plasmodium berghei, 72 h.

Series [4] relates to chloroquine-sensitive NF54 strain of P. falciparum. Put plainly: in vitro screen against chloroquine-sensitive NF54 strain of P. falciparum. It is filed as cell-based. The settings on record: for IC50: Plasmodium falciparum.
[5] abbreviates: in vitro, K1 strain, read-out: IC50 (ng/ml) K1.
Setting [6] is: in vitro, NF54 strain, read-out: IC50 (ng/ml) NF54.

On to `O=C1CCC2(CC1)OOC1(CCCCC1)O2` [OZ02, 3-Oxo-7,14,15-trioxadispiro[5.1.5.2]pentadecane], for which the “Tm dec. (° C.)” value in series [1] was 193.3 °C. Besides, the IC50 is more than 100 ng/mL in series [2] (setting [5]) and 94 ng/mL (≈ 0.415 µM) in series [4] (setting [6]). For the same compound, the “antimalarial activity, overall assessment” value (“antimalarial activity” below) in series [3] was “less active”. In addition, the “Activity (%) po” value in series [3] (single 100 mg/kg po) is given as 0/0%. For the same compound, the “Activity (%) sc” value in series [3] (single 100 mg/kg sc) is on record as 0/0%. Moreover, the “Survival (days) po” value in series [3] (single 100 mg/kg po, survival to day 30 = cure) is on record as 5.0/5.0 days. In addition, the “Survival (days) sc” value in series [3] (single 100 mg/kg sc, survival to day 30 = cure) is 5.0/5.0 days.
With `C1CCC2(CC1)OOC1(CCC3(CC1)OOC1(CCCCC1)O3)O2` (centres unmarked) [OZ09, 7,12,19,20,23,24-Hexaoxatetraspiro[5.1.2.1.5.2.2.2]tetracosane], the “Tm dec. (° C.)” value in series [1] was determined as 196.5 °C. For the same compound, the IC50 in series [2] (K1, read-out: IC50 (ng/ml) K1) stood at 32 ng/mL (≈ 0.094 µM); in series [4] (NF54, read-out: IC50 (ng/ml) NF54) it was 39 ng/mL (≈ 0.115 µM). In addition, in series [3], the “antimalarial activity” value is listed as “less active”.
Consider `Cc1ccc(S(=O)(=O)NN=C2CCC3(CC2)OOC2(O3)C3CC4CC(C3)CC2C4)cc1` (centres unmarked) [OZ39, Adamantane-2-spiro-3′-1′,2′,4′-trioxaspiro[4.5]decan-8′-one tosylhydrazone], for which, in series [1], the “Tm dec. (° C.)” value stood at 146.9 °C. Besides, the IC50 in series [2] (setting [5]) was 1.4 ng/mL (≈ 0.00314 µM); in series [2] (in vitro, K1 and NF54 strains not distinguished, read-out: IC50), less than 2 ng/mL; in series [4] (setting [6]), 1.8 ng/mL (≈ 0.00403 µM). For the same compound, the inhibition in vivo at 10 mg/kg in series [3] (single 10 mg/kg po, read-out: Activity (%) po) came out at 61%; in series [3] (single 10 mg/kg sc, read-out: Activity (%) sc), 99.3%.
For the compound `CCOC(=O)CC1CCC2(CC1)OOC1(O2)C2CC3CC(C2)CC1C3` (centres unmarked) [OZ61, Adamantane-2-spiro-3′-8′-ethoxycarbonylmethyl-1′,2′,4′-trioxaspiro[4.5]decane], in series [1], the “Tm dec. (° C.)” value worked out at 161.7 °C. The “IC50 (ng/ml) K1” value in series [2] (in vitro, K1 strain) was 0.52 ng/mL (≈ 0.00148 µM). Moreover, in series [3] (10 mg/kg po/sc data of Table 2), the “in vivo activity” value is recorded as “modest”. The “IC50 (ng/ml) NF54” value in series [4] (in vitro, NF54 strain) came to 0.53 ng/mL (≈ 0.00151 µM).
Regarding `c1ccc(C2CCC3(CC2)OOC2(CCC(c4ccccc4)CC2)O3)cc1` (centres unmarked) [OZ62, 3,11-Diphenyl-7,14,15-trioxadispiro[5.1.5.2]pentadecane], the “Tm dec. (° C.)” value in series [1] was determined as 201.0 °C. Further, the results for the IC50 in series [2] (setting [5]) and in series [4] (setting [6]) were 33 ng/mL (≈ 0.0905 µM) and 28 ng/mL (≈ 0.0768 µM), respectively. For the same compound, the “Activity (%) po” value in series [3] (single 10 mg/kg po) was 0/0%. In series [3] (single 10 mg/kg sc), the “Activity (%) sc” value was 0/0%.
`Fc1ccc(C2(c3ccc(F)cc3)OOC3(CCC(c4ccccc4)CC3)O2)cc1` (centres unmarked) [OZ66, 3,3-Bis(4-fluorophenyl)-8-phenyl-1,2,4-trioxaspiro[4.5]decane]: in series [1], the “Tm dec. (° C.)” value is 198.5 °C. For the same compound, the IC50 in series [2] (setting [5]) was 44 ng/mL (≈ 0.108 µM); in series [4] (setting [6]) it was 36 ng/mL (≈ 0.0881 µM). For the same compound, the “antimalarial activity” value in series [3] is “completely inactive”. Also, the “Activity (%) po” value in series [3] (single 10 mg/kg po) is on record as 0/0%. In addition, in series [3] (single 10 mg/kg sc), the “Activity (%) sc” value is reported as 0/0%.
For `CCOC(=O)C1CCC2(CC1)OOC1(O2)C2CC3CC(C2)CC1C3` (centres unmarked) [OZ70, Adamantane-2-spiro-3′-8′-ethoxycarbonyl-1′,2′,4′-trioxaspiro[4.5]decane], the “Tm dec. (° C.)” value in series [1] was 162.8 °C. For the same compound, the “IC50 (ng/ml) K1” value in series [2] (in vitro, K1 strain) worked out at 1.2 ng/mL (≈ 0.00357 µM). Further, the “Survival (days) po” value in series [3] (single 10 mg/kg po) was 7.7/7.7 days. Further, in series [3] (single 10 mg/kg sc), the “Survival (days) sc” value is 7.7/7.7 days. Further, the “IC50 (ng/ml) NF54” value in series [4] (in vitro, NF54 strain) stood at 1.1 ng/mL (≈ 0.00327 µM).
`O=C(O)[C@H]1CC[C@@]2(CC1)OOC1(O2)C2CC3CC(C2)CC1C3` (stereo partly drawn) [OZ72, trans-Adamantane-2-spiro-3′-8′-carboxy-1′,2′,4′-trioxaspiro[4.5]decane]: the “Tm dec. (° C.)” value in series [1] is 161.9 °C. In addition, the “IC50 (ng/ml) K1” value in series [2] (in vitro, K1 strain) came to 15 ng/mL (≈ 0.0486 µM). Besides, the “IC50 (ng/ml) NF54” value in series [4] (in vitro, NF54 strain) is 13 ng/mL (≈ 0.0422 µM).
As for `c1ccc2c(c1)CCC1(C2)OOC2(O1)C1CC3CC(C1)CC2C3` (centres unmarked) [OZ85, Adamantane-2-spiro-3′-1′,2′,4′-trioxolane-5′-spiro-2″-3″,4″-dihydro-1″H-naphthalene], the “Tm dec. (° C.)” value in series [1] amounted to 152.8 °C. Moreover, the “in vitro potency” value in series [2] (in vitro, strains not distinguished) is reported as “very active”. In addition, in series [4] (in vitro, NF54 strain), the “IC50 (ng/ml) NF54” value is on record as “/2.0 ng/ml”.
